# Test results taken from patent US20110224186A1, “CARBACEPHEM BETA-LACTAM ANTIBIOTICS” (Achaogen, Inc., priority 2008, published 2011).
# Tests used:
# Experiment in all cases: MIC assay, broth microdilution in CAMHB
# Format in all cases: cell-based
# [1] = tested on: S. aureus ASAU002 (MRSA ATCC 33591); conditions: 2% NaCl, 16-20 h at 35° C.; for MIC: Staphylococcus aureus, read-out: MIC ASAU 002
# Procedure: (§1) The in vitro MIC for bacterial isolates may be obtained in the following manner: a test compound is incorporated into a series of two-fold dilutions in cation adjusted Mueller-Hinton broth (CAMHB). Different bacterial strains diluted to provide a uniform inoculum are added to the CAMHB containing test compounds. A well without test compound is included for each strain as a growth control. […] The procedures used in these experiments are generally those standardized by the Clinical and Laboratory Standards Institute (CLSI), as set forth in the CLSI publication entitled “M7-A7. Methods for dilution antimicrobial susceptibility tests for bacteria that grow aerobically; approved standard-seventh edition.” (2006), which is incorporated by reference as if fully set forth herein. The following exemplifies such a procedure although it is to be understood that modifications of the procedure may be implemented as required.
# (§2) Two-fold dilutions of the test compounds are prepared in CAMHB at 2× the concentration range to be tested if the compounds are soluble in aqueous solution. Alternately, dimethylsulfoxide (DMSO) is used to prepare two-fold dilutions at 10× the concentration range to be tested. Reference drugs such as cefotaxime, vancomycin or imipenem are used as positive controls. A few isolated colonies are retrieved from a pure culture prepared on an agar plate and suspended in PBS until the turbidity of the suspension matches a 0.5 McFarland standard which is equal to approximately 10^8 CFU/mL. This solution is further diluted in CAMHB to 10^6 CFU/mL if compounds are diluted in CAMHB and 5×10^5 CFU/mL if compounds are diluted in DMSO. The CAMHB plates containing the compound dilutions are combined in equal volumes with the higher density inoculum, or 10 μL of the DMSO dilutions are added to the lower density inoculum. When S. aureus is the organism being tested and the compound is oxacillin, a beta-lactam or a carbacephem compound of the present invention, 2% NaCl is added to the growth media. The plates are then incubated for 16-20 h at 35° C. The plates are then observed to determine which concentration of the test compound is the MIC.
# [2] = tested on: S. aureus ASAU1033 (MRSA, CIP, ERY, CLIN, TET, GEN resistant); conditions: 2% NaCl, 16-20 h at 35° C.; for MIC: Staphylococcus aureus, read-out: MIC ASAU 1033
# Procedure: as §1, §2
# [3] = tested on: S. aureus ASAU1029 (CA-MRSA, USA300); conditions: 2% NaCl, 16-20 h at 35° C.; for MIC: Staphylococcus aureus, read-out: MIC ASAU 1029
# Procedure: as §1, §2
# [4] = tested on: S. aureus ASAU1028 (CA-MRSA, USA400); conditions: 2% NaCl, 16-20 h at 35° C.; for MIC: Staphylococcus aureus, read-out: MIC ASAU 1028
# Procedure: as §1, §2
# [5] = tested on: S. aureus ASAU001 (Susceptible Organism ATCC 29213); conditions: 16-20 h at 35° C.; for MIC: Staphylococcus aureus, ATCC29213, 2% NaCl, read-out: MIC ASAU 001
# Procedure: as §1, §2
# [6] = tested on: S. aureus ASAU1043 (MRSA, CIP, ERY, CLI, GEN resistant); conditions: 2% NaCl, 16-20 h at 35° C.; for MIC: Staphylococcus aureus, read-out: MIC ASAU 1043
# Procedure: as §1, §2
MIC [1] [µg/mL],MIC [2] [µg/mL],MIC [3] [µg/mL],MIC [4] [µg/mL],MIC [5] [µg/mL],MIC [6] [µg/mL],MIC ASAU 001 ([5]; 2% NaCl),SMILES,MIC ASAU 002 [1],MIC ASAU 1033 [2],MIC ASAU 1029 [3],MIC ASAU 1028 [4],MIC ASAU 1043 [6]
1 to 8,1 to 8,≤ 1,≤ 1,≤ 1,1 to 8,–,"Nc1nc(/C(=N\O)C(=O)NC2C(=O)N3C(C(=O)O)=C(/C=C4\CCN(C5CCNC5)C4=O)CS[C@H]23)ns1 (stereo partly drawn) [Comparative Compound 1, reference compound]",–,–,–,–,–
≤ 1,1 to 8,1 to 8,1 to 8,≤ 1,1 to 8,–,"Nc1nnc(SC2=C(C(=O)O)N3C(=O)[C@@H](NC(=O)/C(=N\O)c4nc(N)sc4Cl)[C@H]3CC2)s1 [Comparative Compound 2, reference compound]",–,–,–,–,–
> 8,> 8,1 to 8,1 to 8,≤ 1,> 8,–,"Nc1nc(/C(=N/O)C(=O)N[C@@H]2C(=O)N3C(C(=O)O)=C(SCc4ccncc4)CC[C@H]23)c(Cl)s1 [Example 17, (6R,7S,Z)-7-(2-(2-amino-5-chlorothiazol-4-yl)-2-(hydroxyimino)acetamido)-8-oxo-3-(pyridin-4-ylmethylthio)-1-aza-bicyclo[4.2.0]oct-2-ene-2-carboxylic acid]",–,–,–,–,–
≤ 1,1 to 8,≤ 1,≤ 1,≤ 1,1 to 8,–,"Nc1nc(/C(=N/O)C(=O)N[C@@H]2C(=O)N3C(C(=O)O)=C(SCc4ccccc4)CC[C@H]23)c(Cl)s1 [Example 18, (6R,7S,Z)-7-(2-(2-amino-5-chlorothiazol-4-yl)-2-(hydroxyimino)acetamido)-3-(benzylthio)-8-oxo-1-aza-bicyclo[4.2.0]oct-2-ene-2-carboxylic acid]",–,–,–,–,–
1 to 8,> 8,1 to 8,1 to 8,≤ 1,> 8,–,"Nc1nc(/C(=N/O)C(=O)N[C@@H]2C(=O)N3C(C(=O)O)=C(SCSc4nncs4)CC[C@H]23)c(Cl)s1 [Example 23, (6R,7S,Z)-3-((1,3,4-thiadiazol-2-ylthio)methylthio)-7-(2-(2-amino-5-chlorothiazol-4-yl)-2-(hydroxyimino)acetamido)-8-oxo-1-aza-bicyclo[4.2.0]oct-2-ene-2-carboxylic acid]",–,–,–,–,–
1 to 8,> 8,1 to 8,1 to 8,≤ 1,> 8,–,"CNc1nnc(SCSC2=C(C(=O)O)N3C(=O)[C@@H](NC(=O)/C(=N\O)c4nc(N)sc4Cl)[C@H]3CC2)s1 [Example 25, (6R,7S,Z)-7-(2-(2-amino-5-chlorothiazol-4-yl)-2-(hydroxyimino)acetamido)-3-((5-(methylamino)-1,3,4-thiadiazol-2-ylthio)methylthio)-8-oxo-1-aza-bicyclo[4.2.0]oct-2-ene-2-carboxylic acid]",–,–,–,–,–
1 to 8,> 8,1 to 8,1 to 8,≤ 1,> 8,–,"Nc1nc(/C(=N/O)C(=O)N[C@@H]2C(=O)N3C(C(=O)O)=C(SCc4cn[nH]c4)CC[C@H]23)c(Cl)s1 [Example 27, (6R,7S,Z)-3-((1H-pyrazol-4-yl)methylthio)-7-(2-(2-amino-5-chlorothiazol-4-yl)-2-(hydroxyimino)acetamido)-8-oxo-1-aza-bicyclo[4.2.0]oct-2-ene-2-carboxylic acid]",–,–,–,–,–
1 to 8,1 to 8,≤ 1,≤ 1,≤ 1,1 to 8,–,"Cc1ncsc1/C=C\C1=C(C(=O)O)N2C(=O)[C@@H](NC(=O)/C(=N\O)c3nc(N)sc3Cl)[C@H]2CC1 [Example 29, (6R,7S)-7-((Z)-2-(2-amino-5-chlorothiazol-4-yl)-2-(hydroxyimino)acetamido)-3-((Z)-2-(4-methylthiazol-5-yl)vinyl)-8-oxo-1-aza-bicyclo[4.2.0]oct-2-ene-2-carboxylic acid]",–,–,–,–,–
–,–,–,–,–,–,A (MIC's of 1.0 μg/mL or less = A),"Cc1ncsc1/C=C\C1=C(C(=O)O)N2C(=O)[C@@H](NC(=O)/C(=N\O)c3nc(N)sc3Cl)[C@H]2CC1 [Example 31, (6R,7S)-7-((Z)-2-(2-amino-5-chlorothiazol-4-yl)-2-(hydroxyimino)acetamido)-3-((Z)-2-(4-methylthiazol-5-yl)vinyl)-8-oxo-1-aza-bicyclo[4.2.0]oct-2-ene-2-carboxylic acid]",B (MIC's of greater than 1.0 μg/mL to 8.0 μg/mL = B),B (MIC's of greater than 1.0 μg/mL to 8.0 μg/mL = B),B (MIC's of greater than 1.0 μg/mL to 8.0 μg/mL = B),B (MIC's of greater than 1.0 μg/mL to 8.0 μg/mL = B),B (MIC's of greater than 1.0 μg/mL to 8.0 μg/mL = B)
1 to 8,1 to 8,≤ 1,1 to 8,≤ 1,1 to 8,–,"Nc1nc(/C(=N/O)C(=O)N[C@@H]2C(=O)N3C(C(=O)O)=C(/C=C4\CCN([C@@H]5CCNC5)C4=O)CC[C@H]23)c(Cl)s1 [Example 34, (6R,7S)-7-((Z)-2-(2-amino-5-chlorothiazol-4-yl)-2-(hydroxyimino)acetamido)-8-oxo-3-((E)-((R)-2-oxo-1,3′-bipyrrolidin-3-ylidene)methyl)-1-aza-bicyclo[4.2.0]oct-2-ene-2-carboxylic acid]",–,–,–,–,–
